The values that follow are results of earlier work, collected in patent publication US20060286183A1, “Diet supplement for causing rapid weight loss, controlling appetite, managing stress, supporting relaxation, combating fatigue and supporting mental well-being” (priority 2005, published 2006).

For one series, the system named is ATP. The following applies: calorie restriction.
The conditions of series [1]: rats.
The conditions of series [2]: during fatigue.
Series [3] concerns the target T1, catechol-O-methyl-transferase (COMT) (Homo sapiens, UniProt P21964).
T1 sequence (P21964 1-271): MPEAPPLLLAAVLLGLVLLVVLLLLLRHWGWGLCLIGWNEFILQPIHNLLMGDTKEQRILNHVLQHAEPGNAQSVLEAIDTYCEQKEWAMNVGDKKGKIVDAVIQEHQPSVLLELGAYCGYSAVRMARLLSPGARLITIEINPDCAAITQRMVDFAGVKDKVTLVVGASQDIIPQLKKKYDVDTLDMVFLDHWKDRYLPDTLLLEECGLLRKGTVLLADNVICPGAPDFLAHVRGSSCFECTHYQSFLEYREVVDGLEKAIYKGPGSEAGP

For series [4] the following is noted: compared with vitamin C and E.
For series [5] the following is noted: lean and obese rats.
The next series concerns the target glutamate dehydrogenase (Homo sapiens, UniProt P00367).
For series [6] the following is noted: patients with mild to moderate psychosyndromes such as dementia.
For series [7] the following is noted: stroke patients.
The conditions of series [8]: healthy women, three-day supplementation.
The test system of the next series is forebrain ischemia. The following applies: ischemia maintained for 10 minutes.
For series [9] the following is noted: elderly patients.
The conditions of series [10]: during exercise, untrained men and women.
For series [11] the following is noted: rats. The source holds these as a separate data set.
The target of the next series is T2, ATP:citrate lyase (Homo sapiens, UniProt P53396).
T2 sequence (P53396 1-1101): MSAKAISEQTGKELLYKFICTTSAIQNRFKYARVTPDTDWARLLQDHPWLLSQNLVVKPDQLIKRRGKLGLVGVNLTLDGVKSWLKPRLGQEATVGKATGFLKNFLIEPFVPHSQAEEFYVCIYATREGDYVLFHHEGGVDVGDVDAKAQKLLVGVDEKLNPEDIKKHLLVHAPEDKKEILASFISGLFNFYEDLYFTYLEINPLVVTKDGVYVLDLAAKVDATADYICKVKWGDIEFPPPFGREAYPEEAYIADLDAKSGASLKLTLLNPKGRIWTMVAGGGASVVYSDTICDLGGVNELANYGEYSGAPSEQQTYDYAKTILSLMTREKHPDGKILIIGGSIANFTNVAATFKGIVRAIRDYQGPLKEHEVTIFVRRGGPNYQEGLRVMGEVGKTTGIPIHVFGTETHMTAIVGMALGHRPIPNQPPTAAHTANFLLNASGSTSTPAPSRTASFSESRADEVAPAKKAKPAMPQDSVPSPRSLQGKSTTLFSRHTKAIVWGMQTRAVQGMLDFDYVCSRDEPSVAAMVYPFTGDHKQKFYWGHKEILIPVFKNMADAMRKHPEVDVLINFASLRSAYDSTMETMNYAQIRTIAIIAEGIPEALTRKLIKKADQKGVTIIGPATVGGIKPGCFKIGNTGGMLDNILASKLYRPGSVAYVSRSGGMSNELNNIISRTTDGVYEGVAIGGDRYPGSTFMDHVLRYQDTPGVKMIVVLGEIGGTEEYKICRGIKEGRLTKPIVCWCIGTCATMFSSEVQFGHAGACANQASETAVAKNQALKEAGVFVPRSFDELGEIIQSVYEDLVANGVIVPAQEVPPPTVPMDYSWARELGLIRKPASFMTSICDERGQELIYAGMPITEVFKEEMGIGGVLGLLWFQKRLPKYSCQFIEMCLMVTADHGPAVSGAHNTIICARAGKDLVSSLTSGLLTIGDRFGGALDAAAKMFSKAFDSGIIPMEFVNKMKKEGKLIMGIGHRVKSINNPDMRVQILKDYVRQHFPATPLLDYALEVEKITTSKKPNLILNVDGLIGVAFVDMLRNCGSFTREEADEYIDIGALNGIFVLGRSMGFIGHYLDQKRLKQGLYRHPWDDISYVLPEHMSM

The conditions of series [12]: humans.
For series [13] the following is noted: in vivo.
The conditions of series [14]: humans. This is another data set of the same source.
For series [15] the following is noted: animals.
For series [16] the following is noted: obese rats.
The conditions of series [17]: rat, administration of NOPE.
The conditions of series [18]: in vivo. The source holds these as a separate data set.
Assay in series [19]: not given
The source holds these as a separate data set.

Sequence of glutamate dehydrogenase (P00367 54-558): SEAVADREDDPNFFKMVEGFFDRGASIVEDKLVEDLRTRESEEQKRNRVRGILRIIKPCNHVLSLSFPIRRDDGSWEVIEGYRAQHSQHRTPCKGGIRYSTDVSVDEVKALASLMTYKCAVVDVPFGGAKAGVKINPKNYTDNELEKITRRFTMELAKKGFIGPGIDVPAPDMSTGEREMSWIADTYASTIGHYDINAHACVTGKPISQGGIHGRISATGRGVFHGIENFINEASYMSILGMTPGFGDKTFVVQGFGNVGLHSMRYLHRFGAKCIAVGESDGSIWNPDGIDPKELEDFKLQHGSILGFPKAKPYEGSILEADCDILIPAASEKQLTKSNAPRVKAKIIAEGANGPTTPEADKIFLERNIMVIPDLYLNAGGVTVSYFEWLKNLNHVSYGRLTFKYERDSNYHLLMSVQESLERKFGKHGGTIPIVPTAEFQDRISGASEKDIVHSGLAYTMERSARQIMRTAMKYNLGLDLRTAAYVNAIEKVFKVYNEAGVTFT

With `C/C=C(\C)C(=O)O[C@@H]1C[C@H]2[C@@H](CC=C3C[C@@H](O[C@H]4C[C@H](OC)[C@H](O[C@H]5C[C@H](OC)[C@H](O[C@@H]6O[C@H](C)[C@@H](O)[C@H](OC)[C@H]6O)[C@@H](C)O5)[C@@H](C)O4)CC[C@@]32C)[C@@]2(O)CC[C@H](C(C)=O)[C@@]12C` [Example P57], the ATP entry with ATP is “countered the reduction in ATP normally expected from calorie restriction”. Moreover, the food intake entry in [1] was “reduce food intake”.
With `N[C@@H](Cc1ccc(O)cc1)C(=O)O` [Tyrosine], the mental performance entry in series [2] was “improve”. Moreover, the “mood and cognitive performance” value (periods of stress) was “improve mood and cognitive performance”. Moreover, for the setting “under stress”, the “blood pressure and cognition” value is “reduction in blood pressure in addition to cognitive improvement”.
For `O=C(O[C@@H]1Cc2c(O)cc(O)cc2O[C@@H]1c1cc(O)c(O)c(O)c1)c1cc(O)c(O)c(O)c1` [EGCG, (−)-Epigallocatechin-3-gallate], in series [3], the COMT inhibition result was “inhibitor”. The antioxidant activity entry in series [4] was “greater than many well known and established antioxidants”. Also, in series [5], the “food intake, body weight, cholesterol and triglycerides” value was “effective at reducing food intake, body weight, cholesterol and triglycerides”. The glutamate dehydrogenase inhibition result at glutamate dehydrogenase was “inhibitor of glutamate dehydrogenase”.
Turning to `CCOC(=O)C1=C[C@]2(CC)CCCN3CCc4c(n1c1ccccc41)[C@@H]32` [Vinpocetine], the cognitive performance result in series [6] is “cognitive performance improved”. Besides, in series [7], the cerebral blood flow result was “increase cerebral blood flow”. In addition, the memory entry in series [8] is “improvement in the memory”. For the same compound, the brain cell damage entry in the series with forebrain ischemia is “prevent brain cell damage”. Further, in series [9], the “improvement in chronic cerebral dysfunction” value is listed as “significant improvement”.
As for `O=C(O)CC(O)(C(=O)O)C(O)C(=O)O` (stereo not drawn) [HCA, Hydroxycitric acid], the fat oxidation result in [10] was “increase fat oxidation during exercise”. In addition, the “fatty acid synthesis and appetite” value in series [11] is “inhibit fatty acid synthesis and repress appetite”. In addition, the “ATP:citrate lyase inhibition” value at ATP:citrate lyase is “competitive inhibitor”. Besides, the caloric intake result in series [12] is on record as “reduce caloric intake”. For the same compound, the serotonin levels result in series [13] is listed as “significantly increased”.
As for `CC1=C(/C=C/C(C)=C/C=C/C(C)=C/C=C/C=C(C)/C=C/C=C(C)/C=C/C2=C(C)C(=O)[C@@H](O)CC2(C)C)C(C)(C)C[C@H](O)C1=O` [Astaxanthin], the 5-alpha-reductase inhibition entry with 5-alpha-reductase is reported as “inhibiting 5-alpha-reductase”. Moreover, the safety entry in [14] is “safe”. In addition, the exercise-induced muscle damage entry in [15] is on record as “attenuate exercise-induced muscle damage”.
With N-olyl-phosphatidyl ethanolamine [NOPE], in series [16], the body weight result was “lower body weight”. The appetite and weight result in series [17] was “causes appetite suppression and subsequent weight loss”.
With `[Cr]` [Chromium], in [18], the HDL cholesterol result is “increase HDL”. Also, the lean mass entry in series [19] (clinical) is on record as “increase lean mass”. Further, the body fat entry in series [19] (combined with exercise) is “reduce body fat”.
